Laboratory results reported in patent publication US20070093520A1, “Method of treatment of diarrhea-predominant irritable bowel syndrome in a subject” (priority 2005, published 2007).

Test system: diarrhea-predominant IBS subjects
Assay: 3007 Study: open-label 52-week safety study, adverse events and withdrawals
Conditions: Study 3007; for Number of subjects who died / Primary reason for withdrawal: Adverse event and lack of efficacy / Primary reason for withdrawal: Baseline complaint/adverse event / Primary reason for withdrawal: Lack of efficacy: all enrolled

Cc1nccn1C[C@H]1CCc2c(c3cccc4c3n2CCC4)C1=O [cilansetron, (R)-(−)-4,5,6,8,9,10-hexahydro-10-[(2-methyl-1H-imidazol-1-yl)methyl]-11H-pyrido-[3,2,1-jk]-carbazol-11-one]
SAE: Hepatitis NOS (C/C): 1 (<1%) n (%) | SAE: Hepatobiliary Disorders (C/C): 2 (<1%) n (%) | SAE: Immune System Disorders (C/C): 0 n (%) | SAE: Infections and Infestations (C/C): 1 (<1%) n (%) | SAE: Injury, Poisoning and Procedural Complications (C/C): 2 (<1%) n (%) | SAE: Irritable Bowel Syndrome Aggravated (C/C): 1 (<1%) n (%) | SAE: Leiomyoma NOS (C/C): 1 (<1%) n (%) | SAE: Loss of Consciousness (C/C): 1 (<1%) n (%) | SAE: Myocardial Infarction (C/C): 1 (<1%) n (%) | SAE: Neoplasms Benign, Malignant and Unspecified (Incl Cysts and Polyps) (C/C): 3 (1%) n (%) | SAE: Nervous System Disorders (C/C): 2 (<1%) n (%) | SAE: Non-Accidental Overdose (C/C): 1 (<1%) n (%) | SAE: Ovarian Cancer NOS* (C/C): 1 (<1%) n (%) | SAE: Ovarian Cystadenofibroma* (C/C): 0 n (%) | SAE: Pregnancy NOS* (C/C): 1 (<1%) n (%) | SAE: Pregnancy, Puerperium and Perinatal Conditions (C/C): 1 (<1%) n (%) | SAE: Psychiatric Disorders (C/C): 0 n (%) | SAE: Psychotic Disorder NOS (C/C): 0 n (%) | SAE: Renal and Urinary Disorders (C/C): 1 (<1%) n (%) | SAE: Reproductive System and Breast Disorders (C/C): 2 (<1%) n (%) | SAE: Respiratory, Thoracic and Mediastinal Disorders (C/C): 0 n (%) | SAE: Sinusitis Acute NOS (C/C): 0 n (%) | SAE: Status Epilepticus (C/C): 1 (<1%) n (%) | SAE: Suicidal Ideation (C/C): 0 n (%) | SAE: Supraventricular Tachycardia (C/C): 0 n (%) | SAE: Urinary Tract Infection NOS (C/C): 0 n (%) | SAE: Uterine Polyp NOS* (C/C): 1 (<1%) n (%) | SAE: Vaginal Cyst* (C/C): 1 (<1%) n (%) | TEAEs that led to permanent discontinuation of study medication (C/C): 13% | Total Number of Subjects with at Least One Serious Adverse Event (C/C): 19 (7%) n (%) | subjects with at least one TEAE (C/C): 86% | subjects with at least one treatment-emergent SAE (C/C): 7% | withdrawal for AE (C/C): 13% | withdrawal for lack of efficacy (C/C): 17% | Number of deaths (C/C (N = 257)): 0 n (%) | Number of subjects who permanently discontinued study medication due to a TEAE (as reported on the AE CRF) (C/C (N = 257)): 33 (13) n (%) | Number of subjects with at least one AE of special interest (C/C (N = 257)): 186 (72) n (%) | Number of subjects with at least one SAE (C/C (N = 257)): 19 (7) n (%) | Number of subjects with at least one TEAE (C/C (N = 257)): 220 (86) n (%) | Number of subjects with at least one TEAE leading to dose reduction (C/C (N = 257)): 7 (3) n (%) | Number of subjects with at least one related TEAE (C/C (N = 257)): 151 (59) n (%) | Number of subjects with at least one severe TEAE (C/C (N = 257)): 50 (19) n (%) | Number of subjects who died (C/C): 0 n (%) | Primary reason for withdrawal: Adverse event and lack of efficacy (C/C): 23 (9) n (%) | Primary reason for withdrawal: Baseline complaint/adverse event (C/C): 10 (4) n (%) | Primary reason for withdrawal: Lack of efficacy (C/C): 20 (8) n (%) | Number of deaths (Overall (N = 536)): 0 n (%) | Number of subjects who permanently discontinued study medication due to a TEAE (as reported on the AE CRF) (Overall (N = 536)): 83 (15) n (%) | Number of subjects with at least one AE of special interest (Overall (N = 536)): 371 (69) n (%) | Number of subjects with at least one SAE (Overall (N = 536)): 29 (5) n (%) | Number of subjects with at least one TEAE (Overall (N = 536)): 437 (82) n (%) | Number of subjects with at least one TEAE leading to dose reduction (Overall (N = 536)): 11 (2) n (%) | Number of subjects with at least one related TEAE (Overall (N = 536)): 301 (56) n (%) | Number of subjects with at least one severe TEAE (Overall (N = 536)): 94 (18) n (%) | Number of subjects who died (Overall): 0 n (%) | Primary reason for withdrawal: Adverse event and lack of efficacy (Overall): 57 (10) n (%) | Primary reason for withdrawal: Baseline complaint/adverse event (Overall): 24 (4) n (%) | Primary reason for withdrawal: Lack of efficacy (Overall): 45 (8) n (%) | SAE: Abdominal Pain Upper (P/C): 0 n (%) | SAE: Adenomyosis* (P/C): 0 n (%) | SAE: Angina Pectoris (P/C): 0 n (%) | SAE: Appendicitis (P/C): 0 n (%) | SAE: Asthma NOS (P/C): 1 (<1%) n (%) | SAE: Benign Ovarian Tumour* (P/C): 1 (<1%) n (%) | SAE: Bladder Prolapse (P/C): 1 (<1%) n (%) | SAE: Bone Neoplasm Malignant (P/C): 0 n (%) | SAE: Breast Cancer NOS* (P/C): 2 (1%) n (%) | SAE: Bronchopneumonia NOS (P/C): 1 (<1%) n (%) | SAE: Calculus Ureteric (P/C): 0 n (%) | SAE: Cardiac Disorders (P/C): 1 (<1%) n (%) | SAE: Chest Pain (P/C): 1 (<1%) n (%) | SAE: Cholelithiasis (P/C): 0 n (%) | SAE: Colitis Ischaemic (P/C): 1 (<1%) n (%) | SAE: Depression (P/C): 1 (<1%) n (%) | SAE: Endometriosis* (P/C): 0 n (%) | SAE: Fibroma NOS (P/C): 1 (<1%) n (%) | SAE: Food Allergy (P/C): 1 (<1%) n (%) | SAE: Gastritis NOS (P/C): 0 n (%) | SAE: Gastroenteritis NOS (P/C): 0 n (%) | SAE: Gastrointestinal Disorders (P/C): 1 (<1%) n (%) | SAE: General Disorders and Administration Site Conditions (P/C): 1 (<1%) n (%) | SAE: Hallucination NOS (P/C): 1 (<1%) n (%) | SAE: Hallucination, Auditory (P/C): 1 (<1%) n (%) | SAE: Heat Exhaustion (P/C): 0 n (%) | SAE: Hepatitis NOS (P/C): 0 n (%)
